Here are results for one compound from US9688722B2, “Substrates and inhibitors of prolyl oligopeptidase and methods of use” (The Board of Regents of the University of Oklahoma, priority 2012, dated 2017).

The structures appear in SMILES notation. pKi: −log10 of the molar value. “Also recorded” adds a separate entry of the source.

Assay [1] concerns the target T1, APCE/FAP (Homo sapiens, UniProt Q12884).
T1 construct: absence of an about 26-residue amino terminal peptide constituting the transmembrane and intracytosolic domains; from tissue
T1 sequence (Q12884 24-760 limits assumed): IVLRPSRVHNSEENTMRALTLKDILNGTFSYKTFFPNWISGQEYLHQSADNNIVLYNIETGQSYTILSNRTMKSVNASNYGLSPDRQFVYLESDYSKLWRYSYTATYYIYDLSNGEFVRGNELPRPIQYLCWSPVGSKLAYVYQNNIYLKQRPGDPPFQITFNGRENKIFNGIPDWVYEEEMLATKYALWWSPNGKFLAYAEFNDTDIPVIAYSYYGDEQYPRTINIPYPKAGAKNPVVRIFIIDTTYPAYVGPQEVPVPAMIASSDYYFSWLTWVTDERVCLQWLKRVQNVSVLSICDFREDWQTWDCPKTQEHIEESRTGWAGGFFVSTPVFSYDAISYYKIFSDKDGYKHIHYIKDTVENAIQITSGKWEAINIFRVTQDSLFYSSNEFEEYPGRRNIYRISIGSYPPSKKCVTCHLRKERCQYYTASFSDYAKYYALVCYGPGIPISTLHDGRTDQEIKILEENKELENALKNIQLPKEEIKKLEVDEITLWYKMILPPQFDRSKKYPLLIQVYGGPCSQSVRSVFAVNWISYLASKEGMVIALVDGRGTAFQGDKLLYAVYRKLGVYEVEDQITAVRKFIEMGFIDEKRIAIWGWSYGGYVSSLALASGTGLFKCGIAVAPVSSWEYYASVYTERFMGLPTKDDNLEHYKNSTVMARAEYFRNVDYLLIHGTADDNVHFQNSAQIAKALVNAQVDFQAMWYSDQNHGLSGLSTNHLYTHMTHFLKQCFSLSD
The assay can be described thus: APCE/FAP inhibition constants (Ki) with Tic-Pro-AFC substrate. Particulars: substrate Tic-Pro-AFC. It is filed as biochemical. As for the experimental part:
For accurate assessment of kinetic parameters, saturating concentrations of substrate were used. For standard curves, dilutions of AFC (7-amino-4-trifluoromethylcoumarin) were prepared in the same assay buffer and corresponding fluorescence was measured.

Assay [2] concerns the target T2, FAP activity on WI-38 fibroblast surfaces (Homo sapiens, UniProt Q12884).
T2 construct: host or cells: WI-38 fibroblasts
T2 sequence (Q12884 1-760): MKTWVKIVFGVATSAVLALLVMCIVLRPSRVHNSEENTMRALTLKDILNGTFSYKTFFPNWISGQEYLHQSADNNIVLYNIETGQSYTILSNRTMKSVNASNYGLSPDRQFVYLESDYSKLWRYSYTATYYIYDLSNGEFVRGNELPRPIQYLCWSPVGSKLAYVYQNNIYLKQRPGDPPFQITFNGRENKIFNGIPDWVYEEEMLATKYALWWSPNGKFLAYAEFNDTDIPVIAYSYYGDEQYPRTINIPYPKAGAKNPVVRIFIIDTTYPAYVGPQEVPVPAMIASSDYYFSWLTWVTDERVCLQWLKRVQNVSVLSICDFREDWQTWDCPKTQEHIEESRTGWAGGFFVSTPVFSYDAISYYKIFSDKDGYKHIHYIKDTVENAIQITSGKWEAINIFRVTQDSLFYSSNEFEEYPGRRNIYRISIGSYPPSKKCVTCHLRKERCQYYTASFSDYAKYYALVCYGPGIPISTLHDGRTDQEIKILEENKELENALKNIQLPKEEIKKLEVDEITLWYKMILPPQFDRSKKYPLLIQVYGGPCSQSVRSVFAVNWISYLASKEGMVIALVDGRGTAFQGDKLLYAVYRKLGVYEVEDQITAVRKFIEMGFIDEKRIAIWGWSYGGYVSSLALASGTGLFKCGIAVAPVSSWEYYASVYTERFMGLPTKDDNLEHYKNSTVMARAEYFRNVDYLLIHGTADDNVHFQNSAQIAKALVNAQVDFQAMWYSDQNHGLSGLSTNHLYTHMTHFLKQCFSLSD
In words: Whole cell activity assay, cleavage of C95 on WI-38 fibroblasts. It is filed as cell-based. Particulars: substrate C95, inhibitor 10 μM, 1 μM or 100 nM added at two hours. As for the experimental part:
WI-38 fibroblasts were grown on plastic, washed once with HBSS, after which the M83 inhibitor 10 μM in HBSS was added at zero time to one set, and buffer only to the other four sets. The fluorescent substrate C95 was added to all sets of wells and Δ fluorescence/min, reflecting cleavage of C95 over time, was allowed to proceed for two hours when 10 μM, 1 μM or 100 nM of the M83 inhibitor was added to each of three sets of wells.
Whole cell activity assays: Cells were cultured in normal growth media unless otherwise stated. […] Ten μl of fluorescent substrate, C95 were added to give a final concentration of 125 μM, and fluorescence was measured with time at 360/460 nm excitation/emission wavelengths using an FL600 microplate fluorescence reader (Bio-tek Instruments). Fluorescence units were converted to FAP units/100,000 cells by using a conversion factor determined from an APCE standard curve of prolyl-specific endopeptidase activity, such that 1 FAP unit is equivalent to the fluorescence produced by 1 ng of APCE/min. Since FAP and POP cleave the C95 substrate at an equivalent rate, both FAP and POP activities are expressed as FAP units in all figures.

The subject of assay [3] is human lung adenocarcinoma epithelial cells. The assay can be described thus: Lung cancer xenografts in nude mice. It is filed as in vivo. As to the method:
Mice were given a 50 μl injection into each hind leg consisting of human lung adenocarcinoma epithelial cells (2×10^6 cells) suspended in Matrigel™. After ten days the tumors had grown to an estimated 40 mm^3, so M83 treatment was initiated (day 0 in graph). For the M83 treatment group, mice were given a daily intraperitoneal injection of 26.5 micrograms of M83 dissolved in 20 microliters of sterile saline. The mice of the control group were given an intraperitoneal injection of 20 microliters of sterile saline. […] The treatment groups consisted of three mice each with two tumors per mouse.

For the compound `CC(=O)N[C@@H](CCCNC(=N)N)C(=O)NCCOCCOCC(=O)N[C@H](C)C(=O)N1CCC[C@H]1B(O)O` [Compound M83, acetyl-Arg-AEEA-(D)Ala-(L)boroPro], the pKi – broadly, the negative decadic logarithm of the Ki, by convention in mol/L – in assay [1] is 8.24. For the same compound, the “inhibition of FAP proteolytic activity on the cell surface” value in assay [2] is “instantly, and essentially totally, inhibited; also recorded: instantly abolished endopeptidase activity”. Moreover, the tumor growth entry in assay [3] (daily intraperitoneal 26.5 micrograms, nude mice, versus saline control) was “failed to progress”. Besides, the average tumor volume result in assay [3] (day 28 of treatment versus day zero) is “no greater than on day zero”. The tumors completely disappeared result in assay [3] (six tumors in treatment group, 28 days) is recorded as “one of the six tumors”.
